In patent US11427567B2, “Imidazolyl pyrimidinylamine compounds as CDK2 inhibitors” (Incyte Corporation, priority 2019, dated 2022):

molecular target: CDK2/Cyclin E1 (Homo sapiens (Human), UniProt P24941); test: CDK2/Cyclin E1 HTRF enzyme activity assay (Example A); format: biochemical; conditions: 1 mM ATP
Method: Assays were conducted in white 384-well polystyrene plates in a final reaction volume of 8 μL. […] HTRF signals were read after 1 hour at room temperature on a PHERAstar FS plate reader (BMG Labtech). Data was analyzed with IDBS XLFit and GraphPad Prism 5.0 software using a three or four parameter dose response curve to determine IC50 for each compound.

Question: How did the IC50 turn out when `CN1CC(c2ccc(-n3cnc(-c4nc(NC5CCN(S(C)(=O)=O)CC5)ncc4C(F)(F)F)c3)c(Cl)c2)C1` [Example 440, 4-(1-(2-Chloro-4-(1-methylazetidin-3-yl)phenyl)-1H-imidazol-4-yl)-N-(1-(methylsulfonyl)piperidin-4-yl)-5-(trifluoromethyl)pyrimidin-2-amine] was run?
Answer: ≤ 50 nM

Question: Which IC50 does the source give for `C[C@]1(O)CCN(Cc2ccc(-n3cnc(-c4nc(NC5CCN(S(C)(=O)=O)CC5)ncc4C(F)(F)F)c3)c(Cl)c2)C1` [Example 204, (S)-1-(3-Chloro-4-(4-(2-((1-(methyl-sulfonyl)piperidin-4-yl)amino)-5-(trifluoromethyl)-pyrimidin-4-yl)-1H-imidazol-1-yl)-benzyl)-3-methyl-pyrrolidin-3-ol] here?
Answer: ≤ 50 nM

Question: How did the IC50 turn out when `CN(C)CCc1cccc(-n2cnc(-c3nc(NC4CCN(S(C)(=O)=O)CC4)ncc3C(F)(F)F)c2)c1Cl` [Example 370, 4-(1-(2-Chloro-3-(2-(dimethylamino)ethyl)phe-nyl)-1H-imidazol-4-yl)-N-(1-(methylsulfonyl)piperidin-4-yl)-5-(trifluoromethyl)pyrimi-din-2-amine] was run?
Answer: ≤ 50 nM

Question: With `CCNC(=O)c1ccc(-n2cnc(-c3nc(NC4CCN(S(C)(=O)=O)CC4)ncc3C(F)(F)F)c2)c(C)n1` [Example 134, N-Ethyl-6-methyl-5-(4-(2-((1-(methyl-sulfonyl)piperidin-4-yl)amino)-5-(trifluoromethyl)-pyrimidin-4-yl)-1H-imidazol-1-yl)picolinamide] as the compound, how does the IC50 read?
Answer: ≤ 50 nM

Question: `CS(=O)(=O)N1CCC(Nc2ncc(C(F)(F)F)c(-c3cn(-c4ccc(CN5CC(C#N)C5)cc4Cl)cn3)n2)CC1` [Example 198, 1-(3-Chloro-4-(4-(2-((1-(methylsulfonyl)-piperidin-4-yl)amino)-5-(trifluoromethyl)-pyrimidin-4-yl)-1H-imidazol-1-yl)benzyl)-azetidine-3-carbonitrile] was tested. Which IC50 did it give?
Answer: ≤ 50 nM

Question: With `CN1CCN(CCc2ccc(-n3cnc(-c4nc(NC5CCN(S(C)(=O)=O)CC5)ncc4C(F)(F)F)c3)c(C#N)c2)CC1` [Example 457, 5-(2-(4-Methylpiperazin-1-yl)ethyl)-2-(4-(2-((1-(methylsulfonyl)piperidin-4-yl)amino)-5-(trifluoromethyl)pyrimidin-4-yl)-1H-imidazol-1-yl)benzonitrile] as the compound, how does the IC50 read?
Answer: ≤ 50 nM

Question: With `Cc1nc(-c2nc(NC3CCN(S(C)(=O)=O)CC3)ncc2C(F)(F)F)cn1C` [Example 19, 4-(1,2-Dimethyl-1H-imidazol-4-yl)-N-(1-(methylsulfonyl)piperidin-4-yl)-5-(trifluoromethyl)pyrimidin-2-amine] as the compound, how does the IC50 read?
Answer: 50 to 200 nM

Question: How did the IC50 turn out when `CS(=O)(=O)N1CC[C@H](Nc2ncc(C(F)(F)F)c(-c3cn(-c4cccc(C#N)c4Cl)cn3)n2)[C@H](F)C1` [Example 45, 2-Chloro-3-(4-(2-(((3R,4S)-3-fluoro-1-(methylsulfonyl)piperidin-4-yl)amino)-5-(trifluoromethyl)pyrimidin-4-yl)-1H-imidazol-1-yl)benzonitrile] was run?
Answer: ≤ 50 nM

Question: How did the IC50 turn out when `CCNCc1cc(F)c(-n2cnc(-c3nc(NC4CCN(S(C)(=O)=O)CC4)ncc3C(F)(F)F)c2)c(F)c1` [Example 349, 4-(1-(4-((Ethylamino)methyl)-2,6-difluorophenyl)-1H-imidazol-4-yl)-N-(1-(methylsulfonyl)piperidin-4-yl)-5-(trifluoromethyl)pyrimidin-2-amine] was run?
Answer: ≤ 50 nM

Question: How did the IC50 turn out when `Cc1nc(-c2nc(N[C@H]3CCN(S(C)(=O)=O)C[C@H]3F)ncc2C(F)(F)F)cn1-c1ccc(C#N)cc1F` [Example 299, 3-Fluoro-4-(4-(2-(((3R,4S)-3-fluoro-1-(methylsulfonyl)piperidin-4-yl)amino)-5-(trifluoromethyl)pyrimidin-4-yl)-2-methyl-1H-imidazol-1-yl)benzonitrile] was run?
Answer: ≤ 50 nM

Question: Which IC50 does the source give for `CCS(=O)(=O)N1CCC(Nc2ncc(C(F)(F)F)c(-c3cn(-c4ccc(C#N)nc4C)cn3)n2)CC1` [Example 93, 5-(4-(2-((1-(Ethylsulfonyl)piperidin-4-yl)amino)-5-(trifluoromethyl)pyrimidin-4-yl)-1H-imidazol-1-yl)-6-methylpicolinonitrile] here?
Answer: ≤ 50 nM

Question: For `Cc1nc(-c2nc(NC3CCN(S(C)(=O)=O)CC3)ncc2C(F)(F)F)cn1-c1ccc(C2CN(C[C@H](C)O)C2)cc1F` [Example 419, (S)-1-(3-(3-Fluoro-4-(2-methyl-4-(2-((1-(methylsulfonyl)piperidin-4-yl)amino)-5-(trifluoromethyl)pyrimidin-4-yl)-1H-imidazol-1-yl)phenyl)azetidin-1-yl)propan-2-ol], which IC50 is on record?
Answer: ≤ 50 nM

Question: Which IC50 does the source give for `CCN1CCN(Cc2ccc(-n3cnc(-c4nc(NC5CCN(S(C)(=O)=O)CC5)ncc4C(F)(F)F)c3)c(C#N)c2)CC1` [Example 339, 5-((4-Ethylpiperazin-1-yl)methyl)-2-(4-(2-((1-(methylsulfonyl)piperidin-4-yl)amino)-5-(trifluoromethyl)pyrimidin-4-yl)-1H-imidazol-1-yl)benzonitrile] here?
Answer: ≤ 50 nM

Question: With `CCc1ccc(-n2cnc(-c3nc(NC4CCN(S(C)(=O)=O)CC4)ncc3C(F)(F)F)c2)c(C(F)(F)F)n1` [Example 95, 4-(1-(6-Ethyl-2-(trifluoromethyl)pyridin-3-yl)-1H-imidazol-4-yl)-N-(1-(methylsulfonyl)piperidin-4-yl)-5-(trifluoromethyl) pyrimidin-2-amine] as the compound, how does the IC50 read?
Answer: ≤ 50 nM

Question: Which IC50 does the source give for `Cc1c(-n2cnc(-c3nc(NC4CCN(S(C)(=O)=O)CC4)ncc3C(F)(F)F)c2)ccnc1C#N` [Example 292, 3-Methyl-4-(4-(2-((1-(methylsulfonyl)piperidin-4-yl)amino)-5-(trifluoromethyl)pyrimidin-4-yl)-1H-imidazol-1-yl)picolinonitrile] here?
Answer: ≤ 50 nM

Question: `CS(=O)(=O)N1CC[C@H](Nc2ncc(C(F)(F)F)c(-c3cn(-c4cccnc4C(F)F)cn3)n2)[C@H](F)C1` [Example 50, 4-(1-(2-(Difluoromethyl)pyridin-3-yl)-1H-imidazol-4-yl)-N-((3R,4S)-3-fluoro-1-(methylsulfonyl)piperidin-4-yl)-5-(trifluoromethyl)pyrimidin-2-amine] was tested. Which IC50 did it give?
Answer: ≤ 50 nM

Question: `Cc1nc(-c2nc(NC3CCN(S(C)(=O)=O)CC3)ncc2C#N)cn1-c1ccc(CN(C)C)cc1Cl` [Example 288, 4-(1-(2-Chloro-4-((dimethylamino)methyl)phenyl)-2-methyl-1H-imidazol-4-yl)-2-((1-(methylsulfonyl)piperidin-4-yl)amino)pyrimidine-5-carbonitrile] was tested. Which IC50 did it give?
Answer: ≤ 50 nM

Question: For `CS(=O)(=O)N1CCC(Nc2ncc(C(F)(F)F)c(-c3cn(-c4ccc(CN5CCC5=O)cc4Cl)cn3)n2)CC1` [Example 452, 1-(3-Chloro-4-(4-(2-((1-(methylsulfonyl)piperidin-4-yl)amino)-5-(trifluoromethyl)pyrimidin-4-yl)-1H-imidazol-1-yl)benzyl)azetidin-2-one], which IC50 is on record?
Answer: ≤ 50 nM

Question: For `CS(=O)(=O)N1CCC(Nc2ncc(C(F)(F)F)c(-c3cn(-c4ccc(C#N)cc4C#N)cn3)n2)CC1` [Example 59, 4-(4-(2-((1-(Methylsulfonyl)piperidin-4-yl)amino)-5-(trifluoromethyl)pyrimidin-4-yl)-1H-imidazol-1-yl)isophthalonitrile], which IC50 is on record?
Answer: ≤ 50 nM

Question: With `Cc1nc(-c2nc(NC3CCN(S(C)(=O)=O)CC3)ncc2C(F)(F)F)cn1-c1ccc(OCCN(C)C)cc1F` [Example 423, 4-(1-(4-(2-(Dimethylamino)ethoxy)-2-fluorophenyl)-2-methyl-1H-imidazol-4-yl)-N-(1-(methylsulfonyl)piperidin-4-yl)-5-(trifluoromethyl)pyrimidin-2-amine] as the compound, how does the IC50 read?
Answer: ≤ 50 nM

Question: How did the IC50 turn out when `CC(C)NCc1ccc(-n2cnc(-c3nc(NC4CCN(S(C)(=O)=O)CC4)ncc3C(F)(F)F)c2)c(C#N)c1` [Example 340, 5-((Isopropylamino)methyl)-2-(4-(2-((1-(methylsulfonyl)piperidin-4-yl)amino)-5-(trifluoromethyl)pyrimidin-4-yl)-1H-imidazol-1-yl)benzonitrile] was run?
Answer: ≤ 50 nM

Question: Which IC50 does the source give for `COc1ccc(-n2cnc(-c3nc(NC4CCN(S(C)(=O)=O)CC4)ncc3C(F)(F)F)c2)c(C(F)(F)F)n1` [Example 70, 4-(1-(6-Methoxy-2-(trifluoromethyl)pyridin-3-yl)-1H-imidazol-4-yl)-N-(1-(methylsulfonyl)piperidin-4-yl)-5-(trifluoromethyl)pyrimidin-2-amine] here?
Answer: ≤ 50 nM

Question: Which IC50 does the source give for `C[C@]1(O)CCN(Cc2ccc(-n3cnc(-c4nc(NC5CCN(S(C)(=O)=O)CC5)ncc4C(F)(F)F)c3)c(C(F)(F)F)c2)C1` [Example 261, (S)-3-Methyl-1-(4-(4-(2-((1-(methylsulfonyl)piperidin-4-yl)amino)-5-(trifluoromethyl)pyrimidin-4-yl)-1H-imidazol-1-yl)-3-(trifluoromethyl)benzyl) pyrrolidin-3-ol] here?
Answer: ≤ 50 nM

Question: `CS(=O)(=O)N1CCC(Nc2ncc(C(F)(F)F)c(-c3cn(-c4ccc5nccnc5c4Br)cn3)n2)CC1` [Example 162, 4-(1-(5-Bromoquinoxalin-6-yl)-1H-imidazol-4-yl)-N-(1-(methylsulfonyl)piperidin-4-yl)-5-(trifluoromethyl)pyrimidin-2-amine] was tested. Which IC50 did it give?
Answer: ≤ 50 nM

Question: For `CS(=O)(=O)N1CCC(Nc2ncc(C(F)(F)F)c(-c3cn(-c4ccnc(N5CCOCC5)c4Cl)cn3)n2)CC1` [Example 320], which IC50 is on record?
Answer: ≤ 50 nM

Question: With `C[C@@H]1CN(S(C)(=O)=O)CC[C@@H]1Nc1ncc(C(F)(F)F)c(-c2cn(-c3ccc4nccnc4c3Br)cn2)n1` [Example 156, 4-(1-(5-Bromoquinoxalin-6-yl)-1H-imidazol-4-yl)-N-((3R,4S)-3-methyl-1-(methylsulfonyl)piperidin-4-yl)-5-(trifluoromethyl)pyrimidin-2-amine] as the compound, how does the IC50 read?
Answer: ≤ 50 nM

Question: With `CS(=O)(=O)N1CCC(Nc2ncc(C(F)(F)F)c(-c3cn(-c4cccc(CNC5CCOC5)c4Cl)cn3)n2)CC1` (stereo not drawn) [Example 367, 4-(1-(2-Chloro-3-(((tetrahydrofuran-3-yl)amino)methyl)phenyl)-1H-imidazol-4-yl)-N-(1-(methylsulfonyl)piperidin-4-yl)-5-(trifluoromethyl)pyrimi-din-2-amine] as the compound, how does the IC50 read?
Answer: ≤ 50 nM
